Legend:
ALK [1] = biological target: T1, ALK (Homo sapiens, UniProt Q9UM73); assay: ADP-Glo kinase assay, ALK; assay type: biochemical; details: ADP-Glo luminescence; vs parent KSRGDYMTMQIG (axltide); enzyme 1.25–10 nM, ATP 10 μM, peptide 1 μM, 90 min, 25°C; repeated twice, mean
T1 construct: purchased Carna Biosciences 08–518
Source text: (§1) To experimentally evaluate the computationally optimized peptide sequences, we chose five kinases based on commercial availability. Using the ipAE, pLDDT, and ipTM scores, we ranked the Subtimizer-designed sequences, and for each kinase we selected two to five peptides for synthesis and experimental testing. We evaluated the activity of the peptides using the ADP-Glo kinase assay, a luminescence-based method that quantifies ADP production as a measure of kinase activity. First, we measured the ADP-Glo signals for the parental peptide and the baseline (no enzyme background) for the five kinases. […] The varying signal intensities across different kinases reflect differences in their specific activities and the efficiency of the parent peptide substrates.
(§2) ADP-Glo Kit (ADP-Glo™ Kinase Assay, Cat#V6930) was obtained from Promega. The kinases ALK (#08–518), MET (#08–151), ROS1 (#08–163), and EGFR L858R (#08–502) were products of Carna Biosciences. SRC was expressed and purified as previously reported. Substrate peptides were obtained from Biomatik Corporation (Wilmington, DE, USA). All components were equilibrated to 25°C prior to setting up reactions in 384-well microplates (White ProxiPlate 384-shallow well Plus). […] Experiments were repeated twice with results expressed as mean ± standard deviation. Luminescence was detected on a Synergy Neo2 plate reader.

EGFR L858R = assay: ADP-Glo kinase assay, EGFR L858R; assay type: biochemical; details: ADP-Glo luminescence; vs parent KEEIYFFF; enzyme 1.25–10 nM, ATP 10 μM, peptide 1 μM, 90 min, 25°C; repeated twice, mean
Source text: as §1, §2

ROS1 [2] = biological target: T2, ROS1 (Homo sapiens, UniProt P08922); assay: LIMS-kinase assay kinetic analysis (Km), ROS1; assay type: biochemical; details: for Km: LIMS-kinase, MS signal of ADP fragment, ATP 100 μM, peptide from 300–400 μM, 2- or 3-fold dilutions, 25°C, Michaelis-Menten fit, repeated twice
T2 construct: purchased Carna Biosciences 08–163
Source text: (§3) Figures 3A and 3B illustrate the schematic of a kinase assay reaction and the multiple reaction monitoring (MRM) phosphorylation detection system employed in the LIMS-kinase assay. The MRM setup comprises a RapidFire liquid chromatography sampler (Agilent) coupled to a triple quadrupole mass spectrometer (AB Sciex 6500). Quadrupole 1 (Q1) acts as a mass filter, selecting precursor ions based on their mass-to-charge ratios. Q2 functions as a collision cell, fragmenting these precursor ions into product ions. Q3 serves as an additional mass filter, specifically monitoring desired product ion fragments originating from the Q1-selected parent ion (Figure 3B).
(§4) To determine kinase activity, we directly measured ADP production by following specific ADP ion fragments rather than quantifying phosphorylated peptide fragments as in our original published LIMS-kinase assay. We chose to measure ADP production rather than the phosphorylated peptide product to avoid potential variations in ionization efficiency or fragmentation patterns that can arise from differences in amino acid sequences and physicochemical properties of different peptide substrates. This ensures not only a more direct and unbiased comparison of potency across different peptides, but also broad applicability of optimized substrates across different assay platforms. Initial tests confirmed that we were able to selectively detect an ADP fragment in kinase/peptide reactions (Figure S5). The ADP signal was enzyme concentration- and time-dependent, consistent with the expected response of a functional assay. […] We evaluated two enzyme concentrations with the objective of selecting the concentration where activity was linear to 60 minutes with a strong signal (Figure S5). […]
(§5) Final working concentrations of enzyme varied by kinase. […] Activity was evaluated by measuring MS signal of ADP-specific fragment ion. Experiments were repeated twice, with results expressed as mean ± standard deviation.
(§6) Km was evaluated by linear regression of the first three time-points at each concentration of peptide. […]

MET [3] = biological target: T3, MET (Homo sapiens, UniProt P08581); assay: LIMS-kinase assay kinetic analysis (Km), MET; assay type: biochemical; details: for Km: LIMS-kinase, MS signal of ADP fragment, ATP 100 μM, peptide from 300–400 μM, 2- or 3-fold dilutions, 25°C, Michaelis-Menten fit, repeated twice
T3 construct: purchased Carna Biosciences 08–151
Source text: as §3, §4, §5, §6

ROS1 [4] = biological target: T2, ROS1; assay: ADP-Glo kinase assay, ROS1; assay type: biochemical; details: ADP-Glo luminescence; vs parent EEPLYWSFPAK; enzyme 1.25–10 nM, ATP 10 μM, peptide 1 μM, 90 min, 25°C; repeated twice, mean
Source text: as §1, §2

MET [5] = biological target: T3, MET; assay: Peptide selectivity assay (LIMS-kinase), MET; assay type: biochemical; details: LIMS-kinase ADP production; MET 5 nM, peptides 134 μM, ATP 100 μM, 30 min, room temperature; repeated twice
Method: (§7) All components equilibrated to 25°C prior to setting up reactions. All reagents added manually. Peptides added to 384-well microplates (Costar 3657 round bottom polypropylene). A pre-mixed buffer, enzyme, and ATP solution was added to initiate reaction. Reaction was quenched with 1% formic acid (final) following 30-minute incubation at room temperature. Kinase activity was evaluated by measuring MS signal of ADP-specific fragment ion. Experiments were repeated twice, with results expressed as mean ± standard deviation. Time 0 (background) values were subtracted from subsequent time-points.
(§8) RapidFire liquid chromatography and mass spectrometry methods were performed as previously described.

[6] = Peptide solubility observed in Km study; assay type: physicochemical; details: observation in the Km study with EGFR L858R; peptide concentrations started at 300–400 μM
Source text: We ran LIMS-kinase assays using a range of peptide concentrations. We plotted the initial reaction rate for each concentration to generate Michaelis-Menten curves. […] We could not run a successful Km study with EGFR L858R due to the insolubility of the parental MS-csktide1 peptide at high concentrations, similar to our previous observation.

ALK [7] = biological target: T1, ALK; assay: LIMS-kinase assay kinetic analysis (Km), ALK; assay type: biochemical; details: MS signal of ADP fragment, ATP 100 μM, peptide from 300–400 μM, 2- or 3-fold dilutions, 25°C, Michaelis-Menten fit, repeated twice
Source text: as §3
To determine kinase activity, we directly measured ADP production by following specific ADP ion fragments rather than quantifying phosphorylated peptide fragments as in our original published LIMS-kinase assay. […] We evaluated two enzyme concentrations with the objective of selecting the concentration where activity was linear to 60 minutes with a strong signal (Figure S5). […]
as §5, §6

MET [8] = biological target: T3, MET; assay: ADP-Glo kinase assay, MET; assay type: biochemical; details: ADP-Glo luminescence; vs parent EEPLYWSFPAK; enzyme 1.25–10 nM, ATP 10 μM, peptide 1 μM, 90 min, 25°C; repeated twice, mean
Source text: as §1, §2

ROS1 [9] = biological target: T2, ROS1; assay: Peptide selectivity assay (LIMS-kinase), ROS1; assay type: biochemical; details: LIMS-kinase ADP production; ROS1 0.63 nM, peptides 20.3 μM, ATP 100 μM, 30 min, room temperature; repeated twice
Method: as §7, §8

T1 sequence (Q9UM73 19-1620): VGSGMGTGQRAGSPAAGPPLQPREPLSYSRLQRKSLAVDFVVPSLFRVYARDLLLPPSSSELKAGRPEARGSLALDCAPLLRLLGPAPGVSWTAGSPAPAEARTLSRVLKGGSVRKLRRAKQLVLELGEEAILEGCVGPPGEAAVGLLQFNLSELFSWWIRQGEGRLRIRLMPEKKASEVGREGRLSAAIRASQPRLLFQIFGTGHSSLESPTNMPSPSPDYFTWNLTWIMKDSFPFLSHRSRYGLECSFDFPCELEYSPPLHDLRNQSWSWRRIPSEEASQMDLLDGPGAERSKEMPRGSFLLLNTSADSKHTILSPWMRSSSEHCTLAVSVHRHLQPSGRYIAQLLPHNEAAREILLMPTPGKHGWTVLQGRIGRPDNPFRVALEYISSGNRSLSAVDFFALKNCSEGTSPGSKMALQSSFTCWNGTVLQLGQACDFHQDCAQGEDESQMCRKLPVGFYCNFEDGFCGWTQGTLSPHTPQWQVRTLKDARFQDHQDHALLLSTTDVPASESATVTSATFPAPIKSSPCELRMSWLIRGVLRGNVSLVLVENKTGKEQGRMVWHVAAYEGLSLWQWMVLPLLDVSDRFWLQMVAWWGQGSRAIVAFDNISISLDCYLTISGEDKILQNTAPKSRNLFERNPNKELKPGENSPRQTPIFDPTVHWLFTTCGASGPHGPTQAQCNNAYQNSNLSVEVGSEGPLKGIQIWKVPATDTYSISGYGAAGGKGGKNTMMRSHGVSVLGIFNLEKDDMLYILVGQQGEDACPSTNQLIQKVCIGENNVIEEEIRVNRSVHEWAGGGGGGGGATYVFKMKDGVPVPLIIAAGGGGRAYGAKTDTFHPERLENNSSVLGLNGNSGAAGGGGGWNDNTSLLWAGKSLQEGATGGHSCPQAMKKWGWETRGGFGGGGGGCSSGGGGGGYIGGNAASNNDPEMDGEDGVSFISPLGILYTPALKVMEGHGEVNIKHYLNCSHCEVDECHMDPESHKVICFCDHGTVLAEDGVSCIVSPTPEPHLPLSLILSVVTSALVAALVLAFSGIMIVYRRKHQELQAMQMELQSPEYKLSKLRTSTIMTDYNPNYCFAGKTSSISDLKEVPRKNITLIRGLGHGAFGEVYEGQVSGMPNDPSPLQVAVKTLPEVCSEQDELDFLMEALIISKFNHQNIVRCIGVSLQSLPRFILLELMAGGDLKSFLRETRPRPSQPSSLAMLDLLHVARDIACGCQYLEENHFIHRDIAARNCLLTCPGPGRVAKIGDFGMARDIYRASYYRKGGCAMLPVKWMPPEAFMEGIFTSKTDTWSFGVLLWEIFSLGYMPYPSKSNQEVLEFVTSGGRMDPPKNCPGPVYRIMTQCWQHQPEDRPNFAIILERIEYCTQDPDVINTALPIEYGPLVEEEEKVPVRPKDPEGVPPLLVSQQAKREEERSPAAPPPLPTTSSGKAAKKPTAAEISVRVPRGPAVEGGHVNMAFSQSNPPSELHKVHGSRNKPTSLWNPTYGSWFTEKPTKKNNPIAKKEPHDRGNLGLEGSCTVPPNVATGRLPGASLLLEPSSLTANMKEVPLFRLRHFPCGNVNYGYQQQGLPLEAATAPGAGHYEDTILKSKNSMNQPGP
T2 sequence (P08922 28-2347): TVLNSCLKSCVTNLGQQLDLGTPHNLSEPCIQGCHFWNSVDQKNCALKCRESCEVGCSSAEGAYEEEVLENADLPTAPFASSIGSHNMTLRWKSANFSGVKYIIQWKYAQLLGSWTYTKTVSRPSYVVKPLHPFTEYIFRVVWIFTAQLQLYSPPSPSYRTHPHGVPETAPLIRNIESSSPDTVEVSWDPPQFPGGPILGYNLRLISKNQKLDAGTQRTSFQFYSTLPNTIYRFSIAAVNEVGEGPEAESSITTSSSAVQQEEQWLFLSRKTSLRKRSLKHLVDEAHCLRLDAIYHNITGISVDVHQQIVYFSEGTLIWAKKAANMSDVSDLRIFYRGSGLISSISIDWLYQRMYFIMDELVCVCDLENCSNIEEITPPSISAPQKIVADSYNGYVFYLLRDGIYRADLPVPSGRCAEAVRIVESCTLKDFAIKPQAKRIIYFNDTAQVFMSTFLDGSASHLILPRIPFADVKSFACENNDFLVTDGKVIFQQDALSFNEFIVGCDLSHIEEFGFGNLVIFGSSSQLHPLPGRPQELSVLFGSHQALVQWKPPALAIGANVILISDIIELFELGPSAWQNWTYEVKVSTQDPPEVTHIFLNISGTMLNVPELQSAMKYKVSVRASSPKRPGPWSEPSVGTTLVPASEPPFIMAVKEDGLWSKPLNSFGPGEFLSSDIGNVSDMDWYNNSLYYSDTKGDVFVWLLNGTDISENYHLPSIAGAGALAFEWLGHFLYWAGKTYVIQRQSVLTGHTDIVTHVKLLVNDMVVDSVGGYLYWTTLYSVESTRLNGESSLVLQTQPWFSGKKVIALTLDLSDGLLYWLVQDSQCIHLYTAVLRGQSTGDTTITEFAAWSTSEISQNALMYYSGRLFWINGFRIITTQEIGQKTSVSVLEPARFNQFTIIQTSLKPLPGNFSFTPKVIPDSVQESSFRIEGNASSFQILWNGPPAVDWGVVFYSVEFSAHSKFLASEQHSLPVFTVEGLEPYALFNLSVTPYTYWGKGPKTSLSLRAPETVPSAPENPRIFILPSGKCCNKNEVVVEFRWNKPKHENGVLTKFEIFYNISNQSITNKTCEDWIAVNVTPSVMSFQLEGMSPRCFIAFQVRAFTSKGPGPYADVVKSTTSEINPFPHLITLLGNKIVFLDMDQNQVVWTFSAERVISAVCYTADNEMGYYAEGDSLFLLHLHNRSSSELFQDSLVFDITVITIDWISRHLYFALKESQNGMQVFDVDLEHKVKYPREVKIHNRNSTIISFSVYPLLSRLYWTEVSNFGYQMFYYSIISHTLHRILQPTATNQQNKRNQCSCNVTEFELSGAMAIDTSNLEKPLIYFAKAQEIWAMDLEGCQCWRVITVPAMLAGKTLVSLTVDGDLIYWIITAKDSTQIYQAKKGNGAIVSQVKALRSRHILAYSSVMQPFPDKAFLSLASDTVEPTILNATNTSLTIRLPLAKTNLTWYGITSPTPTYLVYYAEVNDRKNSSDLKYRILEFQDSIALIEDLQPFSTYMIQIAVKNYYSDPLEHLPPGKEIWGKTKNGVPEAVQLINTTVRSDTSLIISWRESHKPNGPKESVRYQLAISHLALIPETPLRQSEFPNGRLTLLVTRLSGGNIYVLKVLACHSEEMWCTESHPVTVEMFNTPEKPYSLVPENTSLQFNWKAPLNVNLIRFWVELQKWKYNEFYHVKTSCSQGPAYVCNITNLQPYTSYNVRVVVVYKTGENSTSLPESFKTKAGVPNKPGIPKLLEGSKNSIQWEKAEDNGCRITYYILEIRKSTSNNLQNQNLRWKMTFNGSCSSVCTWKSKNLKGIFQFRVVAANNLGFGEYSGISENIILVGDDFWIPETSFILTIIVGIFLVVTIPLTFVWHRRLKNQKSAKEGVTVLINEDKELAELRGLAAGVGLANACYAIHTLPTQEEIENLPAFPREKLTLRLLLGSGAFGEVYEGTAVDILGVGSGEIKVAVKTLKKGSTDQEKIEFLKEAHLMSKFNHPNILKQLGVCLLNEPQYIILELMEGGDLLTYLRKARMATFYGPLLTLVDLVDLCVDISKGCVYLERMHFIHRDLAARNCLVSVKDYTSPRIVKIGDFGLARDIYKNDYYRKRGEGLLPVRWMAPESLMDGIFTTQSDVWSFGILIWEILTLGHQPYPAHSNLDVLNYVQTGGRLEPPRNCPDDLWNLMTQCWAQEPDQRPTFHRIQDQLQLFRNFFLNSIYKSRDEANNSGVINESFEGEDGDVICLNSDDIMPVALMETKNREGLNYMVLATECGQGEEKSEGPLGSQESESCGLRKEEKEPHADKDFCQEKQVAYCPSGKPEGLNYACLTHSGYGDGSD

## PDPDDYMLMEIG [alk-s4, designed ALK peptide substrate …]
ALK [1]
  relative percentage change (increase) in kinase activity compared to parent peptide: 130%

## EPEGYAPL [egfr-s2]
EGFR L858R
  relative percentage change (increase) in kinase activity compared to parent peptide: approximately 5%

## EEPLYWSFPAK [MS-srctide, parental peptide substrate … for many kinases including MET and ROS1, reference compound]
ROS1 [2]
  Km: 47.6 µM
MET [3]
  Km: 288 µM

## KEPFYMRLKPK [ros1-s2]
ROS1 [2]
  Km: 20.3 µM
ROS1 [2]; ROS1, Km 47.59 to 20.30 µM
  improvement in apparent binding affinity (Km) vs parental MS-srctide: > 2 fold
ROS1 [4]
  relative percentage change (increase) in kinase activity compared to parent peptide: about 35%
MET [5]
  reduction in MET kinase activity compared to met-s1: over 4 fold

## EPEDYAPV [egfr-s1, designed EGFR L858R peptide substrate EPEDYAPV]
EGFR L858R
  relative percentage change (increase) in kinase activity compared to parent peptide: about 10%

## HSPEDYMWVEME [alk-s5, designed ALK peptide substrate …]
ALK [1]
  relative percentage change (increase) in kinase activity compared to parent peptide: 146%

## KEEIYFFF [MS-csktide1, parental peptide substrate KEEIYFFF used for EGFR L858R]
[6]
  solubility at high concentrations: insolubility

## HDPEDYMWVEMR [alk-s3, designed ALK peptide substrate …]
ALK [7]
  Km: 14.1 µM

## KSRGDYMTMQIG [MS-axltide, parental peptide substrate … used for ALK, reference compound]
ALK [7]
  Km: 18.4 µM

## EEPLYVALPAP [met-s2, designed MET peptide substrate …]
MET [8]
  relative percentage change (increase) in kinase activity compared to parent peptide: ~11%

## EEPAYVALPAK [met-s1]
MET [8]
  relative percentage change (increase) in kinase activity compared to parent peptide: approximately 41%
MET [3]
  Km: 134 µM
MET [3]; MET, Km 288 to 134 µM
  reduction in Km vs parental MS-srctide: over 2 fold
ROS1 [9]
  reduction in ROS1 kinase activity compared to ros1-s2: over 11 fold

Reference: doi:10.1101/2025.07.04.663216, “A Computational Workflow for Structure-Guided Design of Potent and Selective Kinase Peptide Substrates” (bioRxiv, 2025)
